# Assay results taken from article PMC7660650, “Chemical Starting Matter for HNF4α Ligand Discovery and Chemogenomics” (International Journal of Molecular Sciences, 2020).
# Values joined by “and” are separate entries in the source; they are usually repeats but may differ in a detail not shown here. Identical values can stand only once. “Also recorded” adds a separate entry of the source. Like-named read-outs stand apart in the source and are kept apart here.
# T1: Gal4-HNF4α (human HNF4α LBD) (Homo sapiens, UniProt P41235)
# T1 construct: uniprot entry: P41235-1, residues 142-377; expressed in transfected cells; host or cells: HEK293T
# T1 sequence (P41235 142-377): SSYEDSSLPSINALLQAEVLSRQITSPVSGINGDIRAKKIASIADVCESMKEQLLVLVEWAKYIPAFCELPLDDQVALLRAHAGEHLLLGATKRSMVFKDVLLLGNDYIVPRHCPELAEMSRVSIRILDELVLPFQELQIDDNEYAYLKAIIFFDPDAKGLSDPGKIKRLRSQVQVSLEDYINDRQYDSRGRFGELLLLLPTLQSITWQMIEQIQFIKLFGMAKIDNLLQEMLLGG
# T2: recombinant HNF4α LBD protein (Homo sapiens, UniProt P41235)
# T2 construct: The LDB domain of HNF4α (aa. 148–377) subcloned into pNIC28-Bsa4; His6 (N); made in house; host or cells: E. coli Rosetta
# T2 sequence (P41235 148-377): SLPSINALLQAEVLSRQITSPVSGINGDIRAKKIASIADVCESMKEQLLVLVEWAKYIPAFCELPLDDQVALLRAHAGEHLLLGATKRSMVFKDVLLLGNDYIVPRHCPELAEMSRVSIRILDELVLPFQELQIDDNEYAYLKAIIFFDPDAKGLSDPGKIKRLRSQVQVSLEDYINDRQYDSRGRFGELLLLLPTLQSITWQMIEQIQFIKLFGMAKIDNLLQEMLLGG
# B1: recombinant HNF4α LBD protein (hepatocyte nuclear factor 4α ligand-binding domain, aa. 148–377) (domain or fragment, human, UniProt P41235-1 148-377, looked up)
# chain: SLPSINALLQAEVLSRQITSPVSGINGDIRAKKIASIADVCESMKEQLLVLVEWAKYIPAFCELPLDDQVALLRAHAGEHLLLGATKRSMVFKDVLLLGNDYIVPRHCPELAEMSRVSIRILDELVLPFQELQIDDNEYAYLKAIIFFDPDAKGLSDPGKIKRLRSQVQVSLEDYINDRQYDSRGRFGELLLLLPTLQSITWQMIEQIQFIKLFGMAKIDNLLQEMLLGG
# notes: 148-377, subcloned into pNIC28-Bsa4; UniProt entry and species are printed for the Gal4-HNF4α reporter construct, not expressly for the E. coli construct; also called NR2A1
# Experiments:
# [1] = molecular target: T1, Gal4-HNF4α (human HNF4α LBD); assay: Hybrid Gal4-HNF4α reporter gene assay in transiently transfected HEK293T cells; type: cell-based; conditions: for Follow-up HNF4α (fold activation of reporter activity) / Primary Screen (Fold Act., 50 µM) / HNF4a-screening_activity_(mean_of_n=2): 50 µM; for HNF4α Ligand Type: Gal4-HNF4α assay; for Primary Screen (Fold Act., 50 µM): mean of two biologically independent repeats, vs. 0.2% DMSO; for HNF4a-screening_activity_(mean_of_n=2): Table S1, primary screening
# [2] = tested on: HNF4α-regulated gene fructose-1,6-bisphosphatase 1 (FBP1); assay: FBP1 mRNA expression in HepG2 cells by qRT-PCR; type: cell-based, human; conditions: 8 h, vs 0.1% DMSO
# [3] = molecular target: T2, recombinant HNF4α LBD protein; assay: Isothermal titration calorimetry (ITC); type: binding; conditions: for Kd: 25 °C, protein 10–20 µM titrated with ligand 50–200 µM, read-out: HNF4α LBD Binding (Kd); for n (ITC binding model): Figure 4
# Description: The recombinant protein harboring an N-terminal His6 tag was initially purified by Ni^2+-affinity chromatography. Size exclusion chromatography was performed using Superdex S75 column (GE Healthcare, Chicago, IL, USA.), and the pure protein was stored in a buffer containing 20 mM 4-(2-hydroxyethyl)-1-piperazineethanesulfonic acid (HEPES) pH 7.5, 200 mM NaCl, 0.5 mM tris(2-carboxyethyl)phosphine (TCEP), and 5% w/v glycerol.
# Isothermal titration calorimetry was performed on an Affinity ITC (TA Instruments, New Castle, DE, USA). The instrument was equilibrated to 25 °C and the stirring rate was set to 75 rpm. HNF4α buffer (20 mM HEPES pH 7.5, 200 mM NaCl, 0.5 mM TCEP, 5% w/v glycerol) with up to 1% DMSO (final concentration) was used for ITC. The recombinant HNF4α LBD protein (10–20 µM, 172 µL) was titrated with fragments (4, 6, 7, 9, 10; 50–200 µM; dissolved in the same buffer). A total of 20-30 injections with a volume of 2.5–4 µL and with an interval of 200–300 s were performed. As a control experiment, HNF4α protein was titrated with buffer, and the buffer was titrated with test compound to detect dissolution artifacts with otherwise identical experimental parameters. Data analysis was performed with NanoAnalyze^TM Software (TA Instruments, New Castle, DE, USA.) using an independent binding model.
# [4] = tested on: Gal4–VP16; assay: Gal4-VP16 control experiment (reporter gene assay, HEK293T cells); type: cell-based; conditions: 50 µM; mean ± SD
# Description: The frame and sequence of the fusion plasmid were verified by sequencing. pFR-Luc (Stratagene) was used as reporter plasmid and pRL-SV40 (Promega, Madison, WI, USA) served for normalization of transfection efficiency and cell growth. The Gal4-VP16 [25] expressed from plasmid pECE-SV40-Gal4-VP16 [26] […] Assay Procedure: HEK293T cells were grown in Dulbecco’s Modified Eagle Medium (DMEM) high glucose, supplemented with 10% Fetal Bovine Serum (FCS), sodium pyruvate (1 mM), penicillin (100 U/mL), and streptomycin (100 μg/mL) at 37 °C and 5% CO2. The day before transfection, HEK293T cells were seeded in 96-well plates (3.0·10^4 cells/well). Before transfection, the medium was changed to Opti-MEM without supplements. Transient transfection was carried out using Lipofectamine LTX reagent (Invitrogen, Carlsbad, CA, USA) according to the manufacturer’s protocol with pFR-Luc (Stratagene), pRL-SV40 (Promega), and the pFA-CMV-hHNF4α-LBD clone or pECE-SV40-Gal4-VP16 for control experiments. Five hours after transfection, the medium was changed to Opti-MEM supplemented with penicillin (100 U/mL), streptomycin (100 μg/mL), now additionally containing 0.1% DMSO (0.2% in the primary screen) and the respective test compounds or 0.1% DMSO (0.2% in the primary screen) alone as the untreated control. In the primary screening, the core set of the Prestwick Drug Fragment Library (Prestwick Chemical, Illkirch, France) was tested at 50 µM concentration in two biologically independent repeats. In the follow-up and dose-response profiling, each concentration was tested in duplicates in at least three biologically independent repeats. Following overnight (12−14 h) incubation with the test compounds, cells were assayed for luciferase activity using Dual-Glo™ luciferase assay system (Promega) according to the manufacturer’s protocol. Luminescence was measured with a Tecan Spark 10M luminometer (Tecan Group Ltd., Männedorf, Switzerland). […] Fold activation was obtained by dividing the mean RLU of test compounds at a respective concentration by the mean RLU of untreated control.
# [5] = molecular target: the molecule itself; assay: ITC; HNF4α LBD protein alone; dimer dissociation upon dilution (seen when inverse ITC experiments were tried); dimer to monomers
# [6] = mean ± SD, at least four repeats
# [7] = significance of Gal4-HNF4α follow-up vs Gal4-VP16 control at the same concentration
molecule,measurement,setting,value
"Nc1ncn([C@@H]2O[C@H](CO)[C@@H](O)[C@H]2O)c(=O)n1 [compound 6, Nc1ncn([C@@H]2O[C@H](CO)[C@@H](O)[C@H]2O)c(=O)n1]","HNF4α vs. VP16 (p, t-test)",[1],p = 0.0034 (**)
same,FBP1 mRNA expression,"[2]; HepG2, 10 µM",significantly promoted FBP1 expression
OC(c1ccc(F)cc1)c1ccc(F)cc1 [compound 10],Kd,[3],~1.7 µM and 1.7 µM
same,n (ITC binding model),[3],1.1
same,Follow-up HNF4α (fold activation of reporter activity),[1]; [6],0.75 ± 0.05 (50 µM) fold activation
same,HNF4α Ligand Type,[1],inverse HNF4α agonism; also recorded: Inverse agonist
same,IC50,"[1]; dose-response, inverse agonism, mean ± SD, read-out: Validated HNF4α Modulation IC50",24 µM
same,"HNF4α vs. VP16 (p, t-test)",[1]; [7],p = 0.0057 (**)
same,FBP1 mRNA expression,"[2]; HepG2, 50 µM",decreased FBP1 mRNA levels; also recorded: robustly decreased FBP1 expression
same,VP16 Control (fold activation of reporter activity),[4],1.1 ± 0.2 (50 µM) fold activation
"O=C(Nc1ccccc1Cl)c1ccccc1O [compound 4, Oc1ccccc1C(=O)Nc1ccccc1Cl]",FBP1 mRNA expression,"[2]; HepG2, 50 µM",promoted FBP1 expression; also recorded: tendency to enhanced FBP1 mRNA levels
"O=C(O)c1cc(-c2ccccc2)ccc1O [compound 9, OC(=O)c1cc(ccc1O)-c1ccccc1]",FBP1 mRNA expression,"[2]; HepG2, 50 µM",decreased FBP1 mRNA levels; also recorded: robustly decreased FBP1 expression
"Nc1ncns1 [compound 7, Nc1ncns1]",Kd,[3],~7 µM and 7 µM
same,n (ITC binding model),[3],0.9
same,"Primary Screen (Fold Act., 50 µM)",[1],2.36 fold activation
same,Follow-up HNF4α (fold activation of reporter activity),[1]; [6],3.0 ± 0.3 (50 µM) fold activation
same,HNF4α Ligand Type,[1],Agonist
same,HNF4a-screening_activity_(mean_of_n=2),[1],2.362
same,EC50,"[1]; dose-response, mean ± SD, at least four repeats, read-out: Validated HNF4α Modulation EC50",31 µM
same,Validated HNF4α Modulation maximum fold act.,[1]; maximum fold increase in reporter activity relative to 0.1% DMSO,3.8 fold act. and 3.8 ± 0.6 fold act.
same,"HNF4α vs. VP16 (p, t-test)",[1]; [7],p < 0.0001 (***)
same,FBP1 mRNA expression,"[2]; HepG2, 50 µM",promoted FBP1 expression; also recorded: tendency to enhanced FBP1 mRNA levels
same,VP16 Control (fold activation of reporter activity),[4],1.4 ± 0.1 (50 µM) fold activation
"COc1ccc2c(c1)OCC2=O [compound 2, COc1ccc2C(=O)COc2c1]","Primary Screen (Fold Act., 50 µM)",[1],1.55 fold activation
same,Follow-up HNF4α (fold activation of reporter activity),[1]; [6],1.3 ± 0.2 (50 µM) fold activation
same,HNF4a-screening_activity_(mean_of_n=2),[1]; listed as Prestw-Frag-1362,0.8621 and 1.554
same,VP16 Control (fold activation of reporter activity),[4],1.3 ± 0.3 (50 µM) fold activation
B1,binding result,[5],binds
